Values joined by “and” are separate entries in the source; they are usually repeats but may differ in a detail not shown here. Equal values may be shown once.
Experiments:
Assay type in all cases: cell-based
[1] = tested on: cos-7 cells; assay: DNA transfection: luciferase expression relative to Lipofectamine 2000; details: for Luciferase expression as a percentage of that achieved using Lipofectamine 2000: 300 ng Luciferase DNA per well; for Luciferase expression as a percentage of that achieved using Lipofectamine 2000 / % of the luciferase activity obtained from the use of Lipofectamine 2000: luciferase assay after 48 hours; for luciferase expression (second part of table, values relative to LIPO2000): 300 ng of DNA per well; for % of the luciferase activity obtained from the use of Lipofectamine 2000: 300 ng DNA per well
Procedure, shortened: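 Lipid/DNA complexes, 300 ng luciferase DNA per well at 2.5-25 w/w lipid:DNA, were formed in sodium acetate/Optimem and added to overnight-seeded cos-7 cells. Luciferase was measured by Bright-Glo luminescence after 48 hours and quantified against an enzyme standard curve. Values are expressed as % of Lipofectamine 2000 at 2.5 w/w.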

[2] = tested on: renilla and firefly luciferases; assay: siRNA delivery: reporter-protein (renilla luciferase) knockdown relative to Lipofectamine 2000, firefly luciferase as viability control; details: 50 ng of siRNA per well
Method: Reporter-protein knockdown achieved by the top transfecting lipids relative to Lipofectamine™ 2000 (where negative values indicate improved knockdown). The assay accounts for toxicity, monitoring expression of both renilla and firefly luciferases, where the latter serves as viability control. For each lipid, 50 ng of siRNA was added per well at specific lipid/RNA w/w ratios (from top to bottom: 2.5, 5, 10, 15).

[3] = DNA delivery: raw luciferase expression (relative light units) of best-transfecting lipids; details: 300 ng of DNA per well
Method: Raw values for luciferase expression (relative lights units) of best-transfecting lipids at lipid/DNA (w/w) ratios listed. 300 ng of DNA was added per well.

[4] = 1st column, no head printed (2.5 w/w by the raw values)
[5] = 2nd column, no head printed (5 w/w by the raw values)
[6] = 3rd column, no head printed (10 w/w by the raw values)
[7] = 4th column, no head printed (15 w/w by the raw values)

Compound | Luciferase expression as a percentage of that achieved using Lipofectamine 2000 ([1]; lipid/DNA 2.5 w/w) | luciferase expression (second part of table, values relative to LIPO2000) ([1]; lipid/DNA 2.5 w/w) | Luciferase expression as a percentage of that achieved using Lipofectamine 2000 ([1]; lipid/DNA 5 w/w) | luciferase expression (second part of table, values relative to LIPO2000) ([1]; lipid/DNA 5 w/w) | Luciferase expression as a percentage of that achieved using Lipofectamine 2000 ([1]; lipid/DNA 10 w/w) | luciferase expression (second part of table, values relative to LIPO2000) ([1]; lipid/DNA 10 w/w) | Luciferase expression as a percentage of that achieved using Lipofectamine 2000 ([1]; lipid/DNA 15 w/w) | luciferase expression (second part of table, values relative to LIPO2000) ([1]; lipid/DNA 15 w/w) | Luciferase expression as a percentage of that achieved using Lipofectamine 2000 ([1]; lipid/DNA 20 w/w) | luciferase expression (second part of table, values relative to LIPO2000) ([1]; lipid/DNA 20 w/w) | Luciferase expression as a percentage of that achieved using Lipofectamine 2000 ([1]; lipid/DNA 25 w/w) | luciferase expression (second part of table, values relative to LIPO2000) ([1]; lipid/DNA 25 w/w) | Reporter-protein knockdown relative to Lipofectamine 2000 (negative values indicate improved knockdown) ([2]; lipid/RNA 2.5 w/w) | Reporter-protein knockdown relative to Lipofectamine 2000 (negative values indicate improved knockdown) ([2]; lipid/RNA 5 w/w) | Reporter-protein knockdown relative to Lipofectamine 2000 (negative values indicate improved knockdown) ([2]; lipid/RNA 10 w/w) | Reporter-protein knockdown relative to Lipofectamine 2000 (negative values indicate improved knockdown) ([2]; lipid/RNA 15 w/w) | Raw values for luciferase expression ([3]; lipid/DNA 2.5 w/w) | further results
CCCCCCCCCCCCCCCOC(=O)CCN(CCOCCO)CCC(=O)OCCCCCCCCCCCCCCC [LG31] | 19.6% | 19.6 | 27.6% | 27.6 | 34.0% | 34.0 | 8.5% | 8.5 | 14.3% | 14.3 | 94.0% | 94.0 | 41 | 21.06 | −2.714 | −5.764 | – | –
CCCCCCCCCCCCCCCOC(=O)CCN(CCCCCO)CCC(=O)OCCCCCCCCCCCCCCC [LG32] | 0.2% | – | 10.2% | – | 1.0% | – | 0.7% | – | 0.4% | – | 0.7% | – | 58.1 | 41.51 | 44.71 | −13.6483 | – | –
CCCCCCCCCCCCCCCOC(=O)CCN(CCC(=O)OCCCCCCCCCCCCCCC)CCC1CCCN1C (stereo not drawn) [LG77] | 0.0% | – | 0.0% | – | – | – | – | – | 0.0% | – | 0.0% | – | 71.01 | −0.05414 | −7.721 | −21.3897 | – | % of the luciferase activity obtained from the use of Lipofectamine 2000 ([1]; 10 w/w lipid to DNA): 43.5%; % of the luciferase activity obtained from the use of Lipofectamine 2000 ([1]; 15 w/w lipid to DNA): 34.0%
CCCCCCCCCCCCCCCOC(=O)CCN(CCCN(C)C)CCC(=O)OCCCCCCCCCCCCCCC [LG80] | 2.2% | – | 11.9% | – | 19.8% | – | 31.3% | – | 21.9% | – | 17.4% | – | 2.007 | −9.09 | −15.9409 | −21.0263 | – | –
CCCCCCCCCCCCCCCOC(=O)CCN(CCO)CCN(CCC(=O)OCCCCCCCCCCCCCCC)CCC(=O)OCCCCCCCCCCCCCCC [LG109] | 16.3% | – | 36.0% | – | 23.4% | – | 37.9% | – | 25.7% | – | 34.5% | – | 55.7409 | 43.9 | −5.231 | −11.1255 | – | –
CCCCCCCCCCCCNC(=O)CCN(C)CCN(CCC(=O)NCCCCCCCCCCCC)CCC(=O)NCCCCCCCCCCCC [ND95] | – | 11.3 | – | 30.9 | – | 37.6 | – | 53.4 | – | 37.8 | – | 54.0 | 19.8058 | 8.319 | −5.205 | −7.163 | 2875811 relative lights units | Raw values for luciferase expression ([3]; lipid/DNA 5 w/w): 4619654 relative lights units; Raw values for luciferase expression ([3]; lipid/DNA 10 w/w): 7977064 relative lights units; Raw values for luciferase expression ([3]; lipid/DNA 15 w/w): 10279185 relative lights units
CCCCCCCCCCCCNC(=O)CCN(CCC(=O)NCCCCCCCCCCCC)CCN(CCC(=O)NCCCCCCCCCCCC)CCN(CCC(=O)NCCCCCCCCCCCC)CCN(CCC(=O)NCCCCCCCCCCCC)CCC(=O)NCCCCCCCCCCCC [ND98] | – | 22.2 | – | 5.3 | – | 0.5 | – | 0.4 | – | 0.4 | – | 0.3 | −4.005 | −4.482 | −4.634 | −13.9514 | 5649897 relative lights units and 6947385 relative lights units | luciferase expression, second set of columns (replicate set of data) [1, 4]: 78.4; luciferase expression, second set of columns (replicate set of data) [1, 5]: 65.8; luciferase expression, second set of columns (replicate set of data) [1, 6]: 26.0; luciferase expression, second set of columns (replicate set of data) [1, 7]: 9.2; Raw values for luciferase expression ([3]; lipid/DNA 10 w/w): 1824773 relative lights units; Raw values for luciferase expression ([3]; lipid/DNA 15 w/w): 643862 relative lights units
CCCCCCCCCCCCNC(=O)CCN(CCCN(CCC(=O)NCCCCCCCCCCCC)CCC(=O)NCCCCCCCCCCCC)CCC(=O)NCCCCCCCCCCCC [ND100] | – | 45.7 | – | 48.0 | – | 20.8 | – | 2.7 | – | – | – | – | 10.88 | −7.546 | −21.4945 | −8.3303 | – | luciferase expression, second set of columns (replicate set of data) [1, 4]: 62.6; luciferase expression, second set of columns (replicate set of data) [1, 5]: 37.4; luciferase expression, second set of columns (replicate set of data) [1, 6]: 2.5; luciferase expression, second set of columns (replicate set of data) [1, 7]: 0.6
CCCCCCCCCCCCCCCNC(=O)CCN(CC)CCCN(CC)CCC(=O)NCCCCCCCCCCCCCCC [NG64] | – | – | – | – | – | – | – | – | – | – | – | – | −11.7697 | −34.6712 | 3.073 | 1.439 | 2585784 relative lights units | Raw values for luciferase expression ([3]; lipid/DNA 5 w/w): 1972838 relative lights units
